US20050187188A1, “Methods for the treatment of a traumatic central nervous system injury” (Emory University, priority 2000, published 2005)
Entries after “also recorded” stand apart in the source; their conditions may differ.

How the values were obtained:
GABA receptor = settings: independent of the benzodiazepines; cited from earlier work
[1] = system: rats with medial frontal cortical contusions; experiment: Cerebral edema (brain tissue water content) after medial frontal cortex contusion, Example 1; assay type: in vivo, rat; settings: 4 mg/kg in cyclodextrin, i.p. 1 h and s.c. 6 h post-injury; 2, 24 and 72 hours; compared to vehicle
Experimental: Contusions to the medical frontal cortex (MFC) using a pneumatic impactor device were generated. Animals were anesthetized by injection of Nembutal (50 mg/kg, i.p) and placed in a stereotaxic apparatus, with body core temperature being maintained with a homeothermic heating blanket system. Using aseptic techniques, a midline incision was made in the scalp, and the fascia retracted to expose the cranium. A centered, bilateral craniotomy was made 3 mm anterior to bregma using a 6 mm diameter trephan. After the removal of the bone, the tip of the impactor was moved to AP:3.0; ML:0.0, checked for adequate clearance, retracted to its elevated position and lowered 3.5 mm DV, so it penetrated the cortex 2 mm. The contusion was made at a velocity of 2.25 m/s with a brain contact time of 0.5 seconds. Following this procedure, the wound cavity was thoroughly cleaned and all bleeding stopped before the fascia and scalp, were sutured closed. In all experiments, the rats' group identity was coded with regard to surgery and treatment to prevent experimenter bias during behavioral testing and later histological examination.
These experimental solutions were then diluted 1:1 with sterile water for a final concentration of HBC of 22.5%.
Sprague-Dawley male rats, approximately 90 days of age at the time of surgery, were used. Rats were housed in individual cages, with a 12:12 light:dark cycle. Food and water were provided ad libitum throughout the experiment. Control rats received sham surgeries and the rest received medial frontal cortical contusions as described in the general methods. The sham-operated controls were given vehicle (cyclodextrin). […] Treatment began one hour after the contusion was produced. […] Subsequently, a second subcutaneous injection 6 hours post-injury for absorption that is more gradual. […]
At 2, 24, and 72 hours the rats were anesthetized, decapitated, and their brains removed quickly from the cranial cavity. […] The brain was placed on a pre-weighed dish and the total weight of the sample was measured. […]

sigma receptor = settings: cited from earlier work
[2] = system: rats with bilateral frontal cortical contusions; experiment: Morris water maze after MFC contusion, Example 2; assay type: in vivo, rat; settings: 4 mg/kg
Experimental: Contusions to the MFC were carried out as described in Example 1.
(§1) These injections started at one hour post-injury with an intraperitoneal injection, and then were repeated at 6, 24, 48, 72, 96, and 120 hours post-injury with subcutaneous injections.
The Morris Water Maize (MWM) consisted of a circular tank with a diameter of 133 cm filled with opaque water (20±1° C.; non-toxic Artista™ nontoxic white tempura paint) to a depth of 64 cm (23 cm from top of tank). A platform (11 cm×11 cm) was submerged to a depth of 2 cm and placed approximately 28 cm from the wall of the pool in the center of the northeast quadrant. The position of the platform will remain constant throughout the experiment. MWM testing began seven days after surgery. Each animal was tested for a total of 10 days (2 trials per day) in two 5-day blocks. At the start of each trial, the experimenter placed a rat into the pool at one of four starting positions, and at the same time, activate the computer-interfaced camera tracking system. Each rat was allowed to swim in the pool until it reached the platform or until 90 seconds has passed. […] The performance of each rat was measured in terms of latency to platform, length of path to platform, and swim strategy, i.e., percent of total time spent in the outer versus inner annuli.

[3] = system: rats with bilateral frontal cortical contusions; experiment: Histological count of ChAT positive cells in nucleus basalis magnocellularis, motor behavior and cavity size, Example 2; assay type: in vivo, rat; settings: 4 mg/kg
Experimental: A single asterisk (*) indicates a significant difference from sham, a double asterisk (**) indicates a significant difference from both sham and lesion controls.
as §1
To determine the relationship between neural cell numbers and behavior, the number of neurons and glia were counted to determine the correlative relationship between the survival of these cells and behavioral performance (FIG. 3).

cell death = settings: by attenuating release of inflammatory cytokines; cited from earlier work

Row | Compound | modulation of the GABA receptor (GABA receptor) | cerebral edema [1] | activity at the sigma receptor (sigma receptor) | Morris water maze performance vs injured rats given vehicle ([2]; injections from 1 h to 120 h post-injury, last three blocks of testing, p<0.05) | performance scores on the spatial learning task vs other groups ([2]; all days of testing) | necrotic cavity size [3] | spontaneous motor behavior [3] | number of ChAT positive cells in the nucleus basalis magnocellularis ([3]; vs untreated controls) | cell death in vitro (cell death)
1 | CC(=O)[C@H]1CC[C@H]2[C@@H]3CC[C@@H]4C[C@@H](O)CC[C@]4(C)[C@H]3CC[C@]12C [epipregnanolone] | positive modulators of the GABA receptor | intermediate between injured controls and the allopregnanolone-treated injured rats | antagonists at the sigma receptor | – | – | – | – | – | –
2 | CC(=O)[C@H]1CC[C@H]2[C@@H]3CC[C@H]4C[C@H](O)CC[C@]4(C)[C@H]3CC[C@]12C [allopregnanolone, allopregnan-3α, or 3β-ol-20-one] | positive modulators of the GABA receptor | significantly reduced cerebral edema | antagonists at the sigma receptor | improved performance on an acquisition task; also recorded: significantly outperformed the injured rats given vehicle | better performance scores on the spatial learning task than the other groups | no differences | no differences | more remaining viable neurons in this structure than untreated controls | prevent cell death in vitro
